Results: ChEMBL document CHEMBL5260833, “An overview of quinazolines: Pharmacological significance and recent developments” (Eur J Med Chem, 2018)

Legend:
[1] = molecular target: Histamine H2 receptor (Homo sapiens) (UniProt P25021); assay: Inhibition of histamine h2 (unknown origin)
[2] = Anticancer activity against human CNS cell assessed as cell growth inhibition measured after 24 hrs by SRB assay; type: functional
RXF 393 = assay: Anticancer activity against human RXF 393 cell assessed as cell growth inhibition measured after 24 hrs by SRB assay; type: functional
[3] = system: Human immunodeficiency virus 1; assay: Therapeutic index, ratio of IC50 for antiviral activity against HIV1 to EC50 for antiviral activity against HIV1; type: functional
UO-31 = assay: Anticancer activity against human UO-31 cell assessed as cell growth inhibition measured after 24 hrs by SRB assay; type: functional
[4] = system: Human immunodeficiency virus 1; assay: Antiviral activity against HIV1; type: functional, organism-based
Rattus norvegicus [5] = assay: Inhibition of AII-induced pressor response in normotensive conscious rat administered orally; type: functional; settings: route po
Rattus norvegicus [6] = assay: Inhibition of AII-induced pressor response in normotensive conscious rat administered intravenously; type: functional; settings: route iv
[7] = molecular target: 5-hydroxytryptamine receptor 2A (Homo sapiens, UniProt P28223); assay: Inhibition of 5-HT2A (unknown origin) assessed as inhibition constant
Oryctolagus cuniculus [8] = assay: Antihypertensive activity in po dosed rabbit assessed as decrease in 30mmhg of systolic blood pressure measured after 4 to 6 hrs; type: functional; settings: time 4-6 hrs
K562 [9] = assay: Anticancer activity against human K562 cell assessed as cell growth inhibition measured after 24 hrs by SRB assay; type: functional
MOLT-4 = assay: Anticancer activity against human MOLT-4 cell assessed as cell growth inhibition measured after 24 hrs by SRB assay; type: functional
SR = assay: Anticancer activity against human SR cell assessed as cell growth inhibition measured after 24 hrs by SRB assay; type: functional
A549 = assay: Anticancer activity against human A549 cell assessed as cell growth inhibition measured after 24 hrs by SRB assay; type: functional
Oryctolagus cuniculus [10] = organism: Oryctolagus cuniculus; assay: Antihypertensive activity in rabbit aorta assessed as vasodilation; type: functional
Mus musculus [11] = assay: Sedative activity in mouse assessed as sleeping time at 30 mg/kg, ip; type: functional
Mus musculus [12] = assay: Sedative activity in mouse assessed as sleeping time at 300 mg/kg, ip; type: functional
Mus musculus [13] = assay: Sedative activity in mouse assessed as sleeping time at 100 mg/kg, ip; type: functional
Mus musculus [14] = assay: Analgesic activity in phenylbenzoquinone induced mouse assessed as reduction in writhing at 10 mg/kg, po measured after 1 hrs by writhing test relative to control; type: functional
Mus musculus [15] = assay: Analgesic activity in acetic acid peritonitis induced mouse assessed as reduction in writhing at 10 mg/kg, po measured after 1 hrs by writhing test relative to control; type: functional
Mus musculus [16] = assay: Anticonvulsant activity in mouse at 100 mg/kg, po measured after 30 mins relative to control; type: functional; settings: 0.5 h
Mus musculus [17] = assay: Analgesic activity in mouse at 100 mg/kg, ip measured after 30 mins relative to control; type: functional; settings: 0.5 h
Mus musculus [18] = assay: Analgesic activity in […] albino mouse at 20 mg/kg, po measured after 2 hrs by Tail-Flick technique relative to control; type: functional
[19] = molecular target: Prostaglandin G/H synthase 2 (Homo sapiens) (UniProt P35354); assay: Inhibition of COXII (unknown origin) relative to control; settings: concentration not given here
[20] = Inhibition of HCV RNA IRES IIa by FRET assay; set-up: species or system Hepacivirus hominis
Mus musculus [21] = assay: Anticonvulsant activity in mouse at 100 mg/kg, ip by MES test relative to control; type: functional
Mus musculus [22] = assay: Anticonvulsant activity in PTZ induced mouse at 100 mg/kg, ip relative to control; type: functional
K562 [23] = assay: Anticancer activity against human K562 cells assessed as cell growth inhibition; type: functional, cell-based
Cytomegalovirus = assay: Antiviral activity against Cytomegalovirus; settings: Human betaherpesvirus 5
CCRF-CEM = assay: Anticancer activity against human CCRF-CEM cell assessed as cell growth inhibition measured after 120 hrs; type: functional, cell-based
WIL2 = assay: Anticancer activity against human WIL2 cell assessed as cell growth inhibition measured after 120 hrs; type: functional, cell-based; settings: WIL2, 120 h

Histamine H2 receptor (Homo sapiens), sequence (P25021 whole entry): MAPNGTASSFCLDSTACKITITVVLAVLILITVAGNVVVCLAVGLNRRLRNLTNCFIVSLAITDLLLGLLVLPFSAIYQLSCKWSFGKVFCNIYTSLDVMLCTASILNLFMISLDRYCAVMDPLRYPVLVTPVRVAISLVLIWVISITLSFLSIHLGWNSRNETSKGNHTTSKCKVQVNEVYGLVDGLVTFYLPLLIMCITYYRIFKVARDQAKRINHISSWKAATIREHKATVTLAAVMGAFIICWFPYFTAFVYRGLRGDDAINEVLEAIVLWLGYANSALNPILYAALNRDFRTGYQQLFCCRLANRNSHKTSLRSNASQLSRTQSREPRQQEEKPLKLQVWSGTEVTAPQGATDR
Prostaglandin G/H synthase 2 (Homo sapiens), sequence (P35354 whole entry): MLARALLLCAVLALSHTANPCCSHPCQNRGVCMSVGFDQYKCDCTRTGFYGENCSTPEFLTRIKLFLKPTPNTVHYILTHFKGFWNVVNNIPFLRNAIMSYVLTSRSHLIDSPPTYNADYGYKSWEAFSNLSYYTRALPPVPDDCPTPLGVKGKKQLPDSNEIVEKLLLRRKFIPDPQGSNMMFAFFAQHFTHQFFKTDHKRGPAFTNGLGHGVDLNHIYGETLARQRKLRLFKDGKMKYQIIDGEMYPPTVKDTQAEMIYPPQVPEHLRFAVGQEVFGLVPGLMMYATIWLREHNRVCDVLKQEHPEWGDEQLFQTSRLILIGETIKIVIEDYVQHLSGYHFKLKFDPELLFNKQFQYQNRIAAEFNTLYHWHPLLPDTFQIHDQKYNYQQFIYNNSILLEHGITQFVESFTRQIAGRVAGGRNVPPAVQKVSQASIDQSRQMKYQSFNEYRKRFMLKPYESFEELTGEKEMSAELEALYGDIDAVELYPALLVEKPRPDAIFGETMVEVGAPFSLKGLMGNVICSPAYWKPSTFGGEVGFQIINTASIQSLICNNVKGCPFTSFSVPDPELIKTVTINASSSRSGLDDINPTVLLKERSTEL
5-hydroxytryptamine receptor 2A, sequence (P28223 whole entry): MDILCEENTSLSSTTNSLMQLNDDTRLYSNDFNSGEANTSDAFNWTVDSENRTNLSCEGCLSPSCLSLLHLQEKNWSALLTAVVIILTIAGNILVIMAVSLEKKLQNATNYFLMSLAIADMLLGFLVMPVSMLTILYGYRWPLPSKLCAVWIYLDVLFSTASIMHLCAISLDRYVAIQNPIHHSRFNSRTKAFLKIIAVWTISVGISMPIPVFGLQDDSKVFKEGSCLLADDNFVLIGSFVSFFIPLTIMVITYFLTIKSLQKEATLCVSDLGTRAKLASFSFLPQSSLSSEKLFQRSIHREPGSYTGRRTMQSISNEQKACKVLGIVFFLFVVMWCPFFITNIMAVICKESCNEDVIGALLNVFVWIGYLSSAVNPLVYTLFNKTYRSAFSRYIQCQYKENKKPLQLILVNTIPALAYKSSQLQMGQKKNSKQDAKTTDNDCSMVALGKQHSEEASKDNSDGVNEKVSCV

## O=c1[nH]c(NCCCOc2cccc(CN3CCCCC3)c2)nc2ccccc12
[1]
  pKb: 7.39

## Cc1ccc2c(c1)/C(=N\NC(=O)CSc1nc3ccccc3c(=O)n1-c1ccccc1)C(=O)N2
[2]
  GI50: 0.209 µM
RXF 393
  GI50: 1660 nM
[3]
  Ratio IC50/EC50: >1.47
UO-31
  GI50: 209 nM
[4]
  EC50: 68.1 µM
  IC50: > 100 µM

## CNC(=C[N+](=O)[O-])NCCSCc1ccc(CN(C)C)o1
[1]
  ED50: 12.3 mg/kg
  pKb: 7.06

## CCCCc1nc2ccc(C(C)C)cc2c(=O)n1Cc1ccc(-c2ccccc2S(=O)(=O)NC(=O)C2CC2)cc1
Rattus norvegicus [5]
  ED50: 0.68 mg/kg
Rattus norvegicus [6]
  ED50: 0.25 mg/kg

## Cc1nc2c(c(=O)n1CCN1CCC(C(=O)c3ccc(F)cc3)CC1)CCCC2
[7]
  Ki: 2.63 nM

## Clc1cccc(Cl)c1NC1=NCCN1 [CLONIDINE]
Oryctolagus cuniculus [8]
  ED30: 0.065 mg/kg

## O=c1[nH]cc(F)c(=O)[nH]1 [FLUOROURACIL]
[2]
  GI50: 42.7 µM
K562 [9]
  GI50: 407 nM
RXF 393
  GI50: 55000 nM
UO-31
  GI50: 6760 nM
MOLT-4
  GI50: 17 µM
SR
  GI50: 1620 nM
A549
  GI50: 1050 nM

## CC(=O)OC1C([N+](=O)[O-])c2ccccc2C(=O)N1[N+](=O)[O-] (centres undefined)
Oryctolagus cuniculus [10]
  pD2: 5.36

## O=c1c2ccccc2nc(-c2ccncc2)n1-c1ccccc1F
Mus musculus [11]
  Time: 3.5 min
Mus musculus [12]
  Time: 699.7 min
Mus musculus [13]
  Time: 111.2 min

## CC(=O)Oc1ccccc1C(=O)O [ASPIRIN]
Mus musculus [14]
  inhibition in vivo at 10 mg/kg: 20%
Mus musculus [15]
  inhibition in vivo at 10 mg/kg: 60%

## Cc1ccccc1-n1c(C)nc2ccccc2c1=O [METHAQUALONE]
Mus musculus [11]
  Time: 5.5 min
Mus musculus [13]
  Time: 119.7 min
Mus musculus [16]
  Activity: 20%

## COc1ccccc1C1SCC(=O)N1NCC(=O)Cc1nc2ccccc2c(=O)n1-c1c(C)[nH]c2ccccc12 (centres undefined)
Mus musculus [17]
  Activity: 80%
Mus musculus [18]
  Activity: 80%
[19]
  inhibition: 90%

## NC1=Nc2ccccc2C2(CC2)N1
[20]
  EC50: 100 µM

## CCn1c(SCC(=O)NN2C(=O)C(C)S/C2=N\c2ccccc2)nc2ccccc2c1=O (centres undefined)
Mus musculus [21]
  Activity: 66%
Mus musculus [22]
  Activity: 66%

## CCN(CC)C(=S)SCc1ccc2nc(C)nc(O)c2c1
K562 [23]
  IC50: 500 nM

## CCOC(=O)c1c(C)cc2nc(COC(=O)NC(C)C)n(-c3ccccc3Cl)c(=O)c2c1C
Oryctolagus cuniculus [8]
  ED30: 0.42 mg/kg

## Nc1nc2[nH]cnc2c(=S)[nH]1 [THIOGUANINE]
[2]
  GI50: 4.9 µM
K562 [9]
  GI50: 195 nM
RXF 393
  GI50: 759 nM
UO-31
  GI50: 1480 nM
MOLT-4
  GI50: 9.12 µM
SR
  GI50: 1620 nM
A549
  GI50: 3550 nM

## NC1=NCc2ccccc2C(=O)N1
[20]
  EC50: 650 µM

## Nc1nc2c(ncn2COC(CO)CO)c(=O)[nH]1 [GANCICLOVIR]
Cytomegalovirus
  EC50: 2600 nM

## COC(=O)CCC(NC(=O)c1ccc(NCc2ccc3nc(C)[nH]c(=O)c3c2Cl)s1)C(=O)OC (centres undefined)
CCRF-CEM
  IC50: 2100 nM
WIL2
  IC50: 1800 nM

## O=c1c2ccccc2nc(-c2ccncc2)n1CCCN1CCOCC1
Mus musculus [12]
  Time: 7.1 min
